Test results reported in US20150140121A1, “Compositions and Methods for Tight Junction Modulation” (Lankenau Institute for Medical Research, priority 2012, published 2015).
Where two headings read alike, the source gives them in different places.

Columns and labels:
epithelial TJs = details: arginine; Rhoads et al. 2009; cited from earlier work
claudin-1 [1] = details: cited from earlier work
[2] = tested on: human colonic (CACO-2) epithelial cell layer; details: cited from earlier work
[3] = tested on: human colonic (CACO-2) epithelial cell layer; details: cited from earlier work; remark: listed apart in the source
TJ = details: glutamine; Seth et al. 2004; cited from earlier work
Claudin-5 = Claudin-5 expression in LLC-PK1 cell layers (Western immunoblot); type: cell-based, porcine; details: for Claudin-5: LLC-PK1 cell layers, given as Incr (increase); for expression of Claudin 5: LLC-PK1 cells
Text: (§1) Zinc has long been known to be efficacious in the treatment of certain types of diarrhea. It has been determined that zinc can render certain TJ barriers less leaky. Zinc effects can vary depending upon the specific type of epithelial layer.

LLC-PK1 cell layers [4] = assay: Transepithelial electrical resistance (Rt) across LLC-PK1 cell layers; type: cell-based, porcine; details: for transepithelial resistance: LLC-PK1 cell layers
Description: (§2) LLC-PK1 is a porcine cell line model of the kidney proximal tubule.
The effect of zinc and/or quercetin on the electrical resistance across LLC-PK1 renal epithelial cell layers was tested. Briefly, LLC-PK1 renal epithelial cell layers were treated with either 100 μM zinc alone, 400 μM quercetin alone; or both agents together. The stimulation of transepithelial electrical resistance (Rt) by maximally effective concentrations of zinc alone and quercetin alone was in the range of 50-60% of control levels. […] The results shown in FIG. 8 represent the mean+/− standard error for 12 cell layers. P values are for one-sided Student's t tests.

Claudin-4 [5] = assay: Claudin-4 expression in LLC-PK1 cell layers (Western immunoblot); type: cell-based, porcine; details: for Claudin-4: LLC-PK1 cell layers, given as Incr (increase)
Text: as §1

Claudin-3 = Claudin-3 expression in LLC-PK1 cell layers (Western immunoblot); type: cell-based, porcine; details: for Claudin-3: LLC-PK1 cell layers, given as Decr (decrease)
Text: as §1

Claudin-7 = Claudin-7 expression in LLC-PK1 cell layers; type: cell-based, porcine
Claudin-2 [6] = assay: Claudin-2 expression in LLC-PK1 cell layers (Western immunoblot); type: cell-based, porcine; details: for Claudin-2: LLC-PK1 cell layers, given as Decr (decrease)
Text: as §1

claudin-2 [7] = details: indole 1 mM; HCT-8 cell layers; Bansal et al. 2010; cited from earlier work
Tricellulin [8] = assay: Tricellulin expression in LLC-PK1 cell layers (Western immunoblot); type: cell-based, porcine; details: for Tricellulin: LLC-PK1 cell layers, given as Decr (decrease)
Text: as §1

Claudin-1 [9] = assay: Claudin-1 expression in LLC-PK1 cell layers (Western immunoblot); type: cell-based, porcine
Text: as §1

Occludin [10] = assay: Occludin expression in LLC-PK1 cell layers (Western immunoblot); type: cell-based, porcine
Text: as §1

[11] = tested on: human colonic (HCT-8) epithelial cell layers; details: indole 1 mM; HCT-8 cell layers; Bansal et al. 2010; cited from earlier work
claudin 7 [12] = details: quercetin 0.2 mM; CACO-2; Amasheh et al. 2008; cited from earlier work
ZO-2 = details: quercetin; independent study, Suzuki et al. 2009; cited from earlier work
LLC-PK1 cell layers [13] = assay: Mannitol flux / leak across LLC-PK1 cell layers; type: cell-based, porcine; details: for Mannitol Flux / mannitol leaking across the cell layer: LLC-PK1 cell layers; for Mannitol Flux: given as Decr (decrease)
Description: FIG. 7A provides a graph of transepithelial resistance of untreated (control) LLC-PK1 cell layers or LLC-PK1 cell layers treated with 50 μM, 100 μM, or 200 μM zinc. FIG. 7B provides a graph of ^14C-D-mannitol leak across untreated (control) LLC-PK1 cell layers or LLC-PK1 cell layers treated with 50 μM, 100 μM, or 200 μM zinc.
as §2

claudin 3 [14] = details: quercetin 0.2 mM; CACO-2; Amasheh et al. 2008; cited from earlier work
[15] = tested on: colonic (CACO-2) epithelial cell layers; details: quercetin treatment; Suzuki et al. 2009; cited from earlier work
claudin-4 [16] = details: cited from earlier work
occludin [17] = details: cited from earlier work
occludin [18] = assay: Occludin amount / localization in colonic (CACO-2) epithelial cell layers; type: cell-based, human; details: 50 or 100 micromolar zinc; CACO-2 cell layer
Text: (§3) When the effects of 50 or 100 micromolar zinc were examined on the TJ permeability of a human colonic (CACO-2) epithelial cell layer, the results were quite different. Here the Rt increased as with the renal epithelium. However, there was an increase—as opposed to a decrease—in a D-mannitol diffusion. In other words, zinc decreased leak to salts but increased leak to small nonelectrolytes. […] Even though the overall cellular content of the tight junction protein(s) may not be affected, zinc may cause a ‘shift’ in certain tight junction protein (e.g., certain claudins) out of the tight junctional complex and into the cell's cytoplasm.

tricellulin [19] = assay: Tricellulin amount in CACO-2 cell layers; type: cell-based, human; details: 50 or 100 micromolar zinc; CACO-2 cell layer
Text: as §3

small intestine = details: zinc supplementation, Zhang et al. 2009; cited from earlier work
[20] = tested on: human colonic (CACO-2) epithelial cell layer; assay: D-mannitol diffusion across CACO-2 cell layers; type: cell-based; details: 50 or 100 micromolar zinc; CACO-2 cell layer
Text: as §3

claudin 3 [21] = assay: Claudin 3 amount in colonic (CACO-2) epithelial cell layers; type: cell-based, human; details: 50 or 100 micromolar zinc; CACO-2 cell layer
Text: as §3

claudin 5 = assay: Claudin 5 amount in colonic (CACO-2) epithelial cell layers; type: cell-based, human; details: 50 or 100 micromolar zinc; CACO-2 cell layer
Text: as §3

claudin 7 [22] = assay: Claudin 7 amount in colonic (CACO-2) epithelial cell layers; type: cell-based, human; details: 50 or 100 micromolar zinc; CACO-2 cell layer
Text: as §3

claudin-1 [23] = assay: Claudin 1 amount / localization in colonic (CACO-2) epithelial cell layers; type: cell-based, human; details: 50 or 100 micromolar zinc; CACO-2 cell layer
Text: as §3

claudin-4 [24] = assay: Claudin 4 amount in colonic (CACO-2) epithelial cell layers; type: cell-based, human; details: 50 or 100 micromolar zinc; CACO-2 cell layer
Text: as §3

occludin [25] = details: zinc supplementation; small intestine; Zhang et al. 2009; cited from earlier work
ZO-1 [26] = details: zinc supplementation; small intestine; Zhang et al. 2009; cited from earlier work
claudin 2 = assay: Claudin 2 amount in colonic (CACO-2) epithelial cell layers; type: cell-based, human; details: 50 or 100 micromolar zinc; CACO-2 cell layer
Text: as §3

[27] = tested on: human colonic (CACO-2) epithelial cell layer; assay: Transepithelial electrical resistance (Rt) across CACO-2 cell layers; type: cell-based; details: 50 or 100 micromolar zinc; CACO-2 cell layer
Text: as §3

ZO-1 [28] = details: zinc; colonic (CACO-2) epithelia; Finamore et al. 2008; cited from earlier work
[29] = glutamine, CACO-2 epithelial cell layers, Li et al. 2009
[30] = quercetin 0.2 mM, CACO-2, Amasheh et al. 2008
[31] = quercetin, independent study, Suzuki et al. 2009
[32] = zinc at 50 and 100 micromolar, LLC-PK1 epithelium
[33] = zinc, LLC-PK1 renal epithelial model

## N=C(N)NCCC[C@H](N)C(=O)O [arginine]
Epithelial TJs
  barrier-enhancing effects (compared with glutamine): very similar barrier-enhancing effects

## NC(=O)CC[C@H](N)C(=O)O [glutamine]
claudin-1 [1]; [29]
  claudin-1 expression: increasing
[2]; [29]
  Rt: increased
[3]; [29]
  mannitol diffusion: decreased
TJ
  toxicity-related increases in TJ leakiness: reverse

## c1ccc2[nH]ccc2c1 [indole]
Claudin-5; 1 mM Indole
  Claudin-5: Incr 150%
Claudin-5; indole (1 mM, FIG. 5B)
  expression of Claudin 5: upregulated
LLC-PK1 cell layers [4]; 1 mM Indole, given as Incr (increase)
  transepithelial resistance: Incr 30%
LLC-PK1 cell layers [4]; indole (0.1, 1, 2 mM, FIG. 6)
  transepithelial resistance: increased
Claudin-4 [5]; 1 mM Indole
  Claudin-4: Incr 100%
Claudin-4 [5]; indole (1 mM, FIG. 5A), LLC-PK1 cells
  expression of Claudin 4: upregulated
Claudin-3; 1 mM Indole
  Claudin-3: Decr 20%
Claudin-3; indole, LLC-PK1 cells
  effect on claudin 3: less than 50%
Claudin-7; indole, LLC-PK1 cells
  effect on claudin 7: less than 50%
Claudin-2 [6]; 1 mM Indole
  Claudin-2: Decr 40%
Claudin-2 [6]; indole, LLC-PK1 cells
  effect on claudin 2: less than 50%
claudin-2 [7]
  abundance of claudin-2: decreased
Tricellulin [8]; 1 mM Indole
  Tricellulin: Decr 10%
Tricellulin [8]; indole, LLC-PK1 cells
  effect on tricellulin: less than 50%
Claudin-1 [9]; 1 mM Indole, LLC-PK1 cell layers, given as Decr (decrease)
  Claudin-1: Decr 30%
Claudin-1 [9]; indole, LLC-PK1 cells
  effect on claudin 1: less than 50%
Occludin [10]; indole, LLC-PK1 cells
  effect on occludin: less than 50%
[11]
  Rt: increased

## O=c1c(O)c(-c2ccc(O)c(O)c2)oc2cc(O)cc(O)c12 [quercetin]
Claudin-5; 400 μM Quercetin
  Claudin-5: Incr 100%
Claudin-5; 400 μM quercetin, FIG. 3B
  expression of Claudin 5: upregulated
LLC-PK1 cell layers [4]; 400 μM Quercetin, given as Incr (increase)
  transepithelial resistance: Incr > 20%
LLC-PK1 cell layers [4]; quercetin (100, 200, 400 μM, FIG. 4A)
  transepithelial resistance: increased
claudin-1 [1]; [30]
  amount of claudin 1: unaffected
claudin-1 [1]; [31]
  cellular redistribution of claudin-1: cellular redistribution
Claudin 7 [12]
  amount of claudin 7: unaffected
ZO-2
  cellular redistribution of ZO-2: cellular redistribution
Claudin-4 [5]; 400 μM Quercetin
  Claudin-4: Incr 75%
LLC-PK1 cell layers [13]; 400 μM Quercetin
  Mannitol Flux: Decr > 20%
LLC-PK1 cell layers [13]; quercetin (100, 200, 400 μM, FIG. 4B)
  mannitol leaking across the cell layer: decrease
Claudin-3; 400 μM Quercetin
  Claudin-3: Decr 30%
Claudin-7; 400 μM Quercetin, LLC-PK1 cell layers, given as Incr (increase)
  Claudin-7: Incr 200%
Claudin 3 [14]
  amount of claudin 3: unaffected
[2]; [30]
  TJ permeability to Na+ and Cl− ions: decreased
[2]; quercetin 0.2 mM, colonic (CACO-2) epithelial cell layers, Amasheh et al. 2008
  Rt: increased
Claudin-2 [6]; 400 μM Quercetin
  Claudin-2: Decr 75%
Claudin-2 [6]; 400 μM quercetin, LLC-PK1 cells, FIG. 3A
  expression of Claudin 2: downregulated
Tricellulin [8]; 400 μM Quercetin
  Tricellulin: Decr 15%
[15]
  permeability of the electrically charged dye Lucifer yellow: decreased
[3]; [30]
  TJ permeability to the nonelectrolyte D-mannitol: no significant effect
claudin-4 [16]; [30]
  TJ content of claudin-4: dramatic increase
claudin-4 [16]; [31]
  increase in claudin-4: confirmed
Occludin [17]; [30]
  amount of occludin: unaffected
Occludin [17]; [31]
  cellular redistribution of occludin: cellular redistribution

## [Zn] [zinc]
Claudin-5; [32]
  claudin 5 expression by Western immunoblot: none had exhibited increased or decreased expression
LLC-PK1 cell layers [4]; 100 μM Zn, given as Incr (increase)
  transepithelial resistance: Incr > 40%
LLC-PK1 cell layers [4]; zinc (50, 100, 200 μM, FIG. 7A)
  transepithelial resistance: increased
LLC-PK1 cell layers [4]; zinc at 50 and 100 micromolar, renal proximal tubular-like (LLC-PK1) epithelium
  transepithelial electrical resistance (Rt): increased
Occludin [18]
  occludin amount: no changes
Claudin-4 [5]; [32]
  claudin 4 expression by Western immunoblot: none had exhibited increased or decreased expression
Claudin-4 [5]; [33]
  shift of claudin 4 out of the tight junctional complex into the cytoplasm: has been observed
LLC-PK1 cell layers [13]; 100 μM Zn
  Mannitol Flux: Decr > 20%
LLC-PK1 cell layers [13]; zinc (50, 100, 200 μM, FIG. 7B)
  mannitol leaking across the cell layer: decrease
LLC-PK1 cell layers [13]; [32]
  transepithelial diffusion of D-mannitol: decreased
Tricellulin [19]
  tricellulin amount: no changes
Claudin-3; [32]
  claudin 3 expression by Western immunoblot: none had exhibited increased or decreased expression
Small intestine
  leakage of the small non-electrolyte lactulose: decreasing
[20]
  D-mannitol diffusion: increase
Claudin-2 [6]; [32]
  claudin 2 expression by Western immunoblot: none had exhibited increased or decreased expression
Claudin-2 [6]; [33]
  shift of claudin 2 out of the tight junctional complex into the cytoplasm: has been observed
Claudin 3 [21]
  claudin 3 amount: no changes
Claudin 5
  claudin 5 amount: no changes
Claudin 7 [22]
  claudin 7 amount: significant decreases
Tricellulin [8]; [32]
  tricellulin expression by Western immunoblot: none had exhibited increased or decreased expression
Claudin-1 [9]; [32]
  claudin 1 expression by Western immunoblot: none had exhibited increased or decreased expression
claudin-1 [23]
  claudin 1 amount: no changes
claudin-4 [24]
  claudin 4 amount: no changes
Occludin [25]
  levels of occludin: increased
ZO-1 [26]
  levels of ZO-1: increased
Claudin 2
  claudin 2 amount: significant decreases
Occludin [10]; [32]
  occludin expression by Western immunoblot: none had exhibited increased or decreased expression
[27]
  Rt: increased
ZO-1 [28]
  localization of ZO-1: regulate the localization
Occludin [17]; zinc, colonic (CACO-2) epithelia, Finamore et al. 2008
  localization of occludin: regulate the localization
